The structures appear in SMILES notation.

The test system of data set [1] is caspase-3. Put plainly: STS-induced caspase-3 (3/7) activity in neurons. It is filed as cell-based, rat. As to the method: The Caspase3/7-GLO assay uses the exact same reagents as the CellTiter-GLO assay accept for the addition of a luciferin substrate crosslinked to an amino acid caspase cleavage target. Activation of caspases frees luciferin. Luciferin can then be oxidized by luciferase, thereby initiating a light reaction. Luminescence was measured using a luminometer.

The test system of data set [2] is caspase-3. Kind of data set: Western blot of cleaved caspase-3 and caspase-3 substrates after STS. The format is cell-based, rat. As to conditions: 125 μM. As to the method: Caspase-3 inhibition was confirmed by biochemical analysis. Protein samples harvested from neurons incubated with 125 μM AQ2S and 500 nM STS for 6 hours were run on western blot. Consistent with caspase-3 inhibition, cleaved (i.e., activated) capase-3 was reduced in AQ2S-treated neurons (FIG. 8D). Finally, the inhibition of caspase-3 by AQ2S was confirmed biochemically via western blot analysis of substrate cleavage products. Poly ADP ribose polymerase is a classic caspase-3 substrate. The parent protein migrates at ˜116 KDa on SDS-PAGE. An 89-KDa product is produced upon cleavage by caspase-3. Cortical neurons were subjected to 250 nM STS for 6 hours.
Neurons used for Western blot analysis for grown in 6-well plates. Briefly, neurons were treated with experimental compounds for the indicated time/conditions. At the end of each experiment, neurons were washed in ice cold PBS and harvested in 65 μL RIPA buffer containing protease inhibitors, phosphatase inhibitors, and EDTA. Extracts were collected in 0.5 mL tubes and sonicated for 20-30 seconds. Cell extracts were then spun at 4° C./16,000 g/10 minutes and stored at −80° C. until use. Frozen extracts were thawed on ice and protein concentration measured using the BCA assay (PIERCE). […] of sample protein was loaded per well of a 7.5% SDS precast gel (Biorad), and run for 30 minutes to 1 hour at 200 V. Kaleidoscope protein standards (Biorad) were run parallel to neuron extracts. Proteins were then transferred to PDVF membranes (run at 100 V/4° C./1.5 hours). PDVF membranes were washed once in tris buffered saline (TBS) and blocked for 1 hour in tris buffered saline/tween-20 with 7.5% nonfat milk (TBS-T/milk). Blots were incubated overnight at 4° C. with primary antibodies in TBS-T/milk. Cell Signaling Technology: phospho-AKT473, AKT Total, phospho-ERK1/2, ERK Total, cleavage caspase-3. Santa Cruz Antibodies: NF-κB p50 subunit, NF-κB p65 subunit, and beta actin. Calbiochem: 4-HNE antibody. Blots were washed 3 times (5 minutes each) with TBS, and incubated with secondary antibodies for 2 hours. Invitrogen: goat anti-rabbit or goat anti-mouse. Blots were washed 3 times (5 minutes each) with TBS, and incubated for 1 minute in HRP detection solution (Amersham). Films were exposed to blots and developed (SRX-101A, Konica Minolta Medical & Graphic Inc.). Re-probed blots (e.g. beta actin, AKT total, ERK total) were stripped in western blot stripping buffer (Fischer Scientific) for 10 minutes, washed once with TBS, re-blocked in TBS-T/milk for 1 hour, and incubated overnight with new primary antibody. Films were scanned (EPSON GT 20,000), and densitometry performed using UN-SCAN-IT software (Silk Scientific).
Background: Immunoblotting shows a protein as a band on a membrane.

Data set [3] has as its system extracellular regulated kinase (ERK). Kind of data set: Western blot of ERK activation. It is filed as cell-based, rat. The conditions noted are these: 125 μM; 17 hours STS. How it is done: To determine the specificity of AQ2S mediated signaling changes, extracellular regulated kinase (ERK) was also examined. 17 hours STS abolished ERK activation.
Neurons used for Western blot analysis for grown in 6-well plates. Briefly, neurons were treated with experimental compounds for the indicated time/conditions. At the end of each experiment, neurons were washed in ice cold PBS and harvested in 65 μL RIPA buffer containing protease inhibitors, phosphatase inhibitors, and EDTA. Extracts were collected in 0.5 mL tubes and sonicated for 20-30 seconds. Cell extracts were then spun at 4° C./16,000 g/10 minutes and stored at −80° C. until use. Frozen extracts were thawed on ice and protein concentration measured using the BCA assay (PIERCE). […] of sample protein was loaded per well of a 7.5% SDS precast gel (Biorad), and run for 30 minutes to 1 hour at 200 V. Kaleidoscope protein standards (Biorad) were run parallel to neuron extracts. Proteins were then transferred to PDVF membranes (run at 100 V/4° C./1.5 hours). PDVF membranes were washed once in tris buffered saline (TBS) and blocked for 1 hour in tris buffered saline/tween-20 with 7.5% nonfat milk (TBS-T/milk). Blots were incubated overnight at 4° C. with primary antibodies in TBS-T/milk. Cell Signaling Technology: phospho-AKT473, AKT Total, phospho-ERK1/2, ERK Total, cleavage caspase-3. […]

The subject of the next data set is 4-HNE. Put plainly: Lipid peroxidation (4-HNE western blot) in neurons. It is filed as cell-based, rat. How it is done: To test if AQ2S promotes lipid peroxidation in neurons, at D.I.V. 12, culture media was exchanged with Neurobasal/B27 (−AO) in the absence or presence of […] for 48 hours. D.I.V. 14 neurons were harvested and analyzed for 4-HNE levels.
Injury (e.g. brain ischemia), robustly increases endogenous reactive oxygen species (ROS) levels. ROS may promote the formation of deleterious quinone radicals and increase lipid peroxidation. The potential enhancement by AQ2S of lipid peroxidation induced by 200 μM H2O2 was evaluated. D.I.V. 13 neurons were treated for 4.5 hours with 200 μM H2O2 in fresh neurobasal/B27 (−AO) in the presence or absence of 125 μM AQ2S. 200 μM H2O2 increased 4-HNE levels. The asterisk in FIG. 17b indicates an approximate 40-45 KDa band, particularly, sensitive to treatment.
Neurons used for Western blot analysis for grown in 6-well plates. Briefly, neurons were treated with experimental compounds for the indicated time/conditions. At the end of each experiment, neurons were washed in ice cold PBS and harvested in 65 μL RIPA buffer containing protease inhibitors, phosphatase inhibitors, and EDTA. Extracts were collected in 0.5 mL tubes and sonicated for 20-30 seconds. Cell extracts were then spun at 4° C./16,000 g/10 minutes and stored at −80° C. until use. Frozen extracts were thawed on ice and protein concentration measured using the BCA assay (PIERCE). […]

In data set [4] the test system is primary rat cortical neurons. Put plainly: Stretch injury (in vitro TBI), LDH release and MTT metabolism. As to conditions: 24 hours after injury. The format is cell-based. How it is done: Rat cortical neurons are isolated from E16 embryos, and plated on silicone membranes (with defined elastic properties) held in a custom made stainless steel chamber. DIV 7-9 neurons are subjected to a (computer controlled) preset stretch injury; strain rate 10 s^−1 and 50% membrane deformation. AQ2S or DMSO (vehicle control) was added before (pre-treatment) or after post-treatment) injury, Cell death was assayed ˜24 hours after injury by measuring 1) extracellular LDH in the culture media (released from dying/dead cells), 2) caspase-3/7 activation (a protease involved in execution of cell death), and 3) MTT metabolism (a reagent metabolized by living cells).
LDH is released by dying or injured cells. Primary rat cortical neurons were grown on a custom made stretch-injury device (An in vitro model of TBI). Neurons were pre-treated with 75 μM AQ2S or vehicle only (DMSO control) for 30 minutes, and subjected to a defined stretch injury. 24 hours after injury LDH levels were measured. […] Data was analyzed using a T-test; ***p<0.0001. […]
(3-(4,5-Dimethylthiazol-2-yl)-2,5-diphenyltetrazolium bromide; MTT) is metabolized in living but not dying cells. […] MTT metabolism was measured 24 hours after injury. […] Data was analyzed using ANOVA and Fisher LSD post-hoc test. […]

In data set [5] the test system is mice. As to conditions: intraperitoneal; cited from earlier work.
Data set [6] concerns mice. As to conditions: IP 100, 200 or 400 mg/kg; cited from earlier work.

With `O=C1c2ccccc2C(=O)c2cc(S(=O)(=O)O)ccc21` [AQ2S, anthraquinone-2-sulfonic acid], the caspase-3 activity entry in the data set with caspase-3 [1] (150 nM STS 24 hours, co-treatment 75 μM) is “significantly reduced baseline and injury activity levels”. Besides, in the data set with caspase-3 [1] (250 nM STS 24 hours), the “STS-induced caspase-3 activation” value is given as “completely blocked STS-induced caspase-3 activation”. For the same compound, the “potency among caspase-3, -8 and -9” value in the data set on caspase-3 [1] (75 μM) is “greatest potency against caspase-3”. Also, the “89-KDa PARP cleavage product, western blot” value in the data set on caspase-3 [2] (250 nM STS 6 hours) is listed as “significantly reduced the formation of the 89-KDa species”. For the same compound, in the data set with caspase-3 [2] (250 nM STS 17 hours), the “NF-κB p50 subunit protein levels” value is “No change” and the “NF-κB p65 subunit protein levels” value is given as “increased”. In addition, the “cleaved (activated) caspase-3, western blot” value in the data set with caspase-3 [2] (500 nM STS 6 hours) is listed as “reduced”. Besides, the ERK activation entry in data set [3] is “did not prevent STS-mediated ERK inhibition”. Further, the 4-HNE staining entry in the data set on 4-HNE (200 μM H2O2 4.5 hours, 125 μM) was “did not significantly up-regulate 4-HNE staining”. In addition, the “basal level of 4-HNE” value in the data set on 4-HNE (uninjured, 125 AQ2S 48 hours) is listed as “did not significantly increase the basal level of 4-HNE”. The “stretch injury induced LDH release (neuronal death)” value in data set [4] (75 μM pre-treated 30 minutes) was “significantly reduced neuronal death”. In data set [4] (30 minutes before or 30 minutes after injury), the “MTT metabolism after stretch injury” value is listed as “increased by pre- or post-treatment with AQ2S”. In the data set with mice [5], the “Acute LD50” value was 630 mg/kg. For the same compound, in the data set with mice [6], the survival result is “all animals survived to toxicology day 5” and the tumor formation result was “did not inhibit tumor formation”.

The record behind these values is patent US10857112B2, “Small molecule inhibitors of RNA binding motif (RBM) proteins for the treatment of acute cellular injury” (University of Pittsburgh—Of the Commonwealth System of …, priority 2012, dated 2020).
